Data set [1] deals with T1, CYP3A4 (Homo sapiens, UniProt P08684). Kind of data set: Effect of gilteritinib on the pharmacokinetics of midazolam. The settings on record: for AUC24, GLSM ratio (midazolam + gilteritinib/midazolam alone) / Cmax, GLSM ratio (midazolam + gilteritinib/midazolam alone): 100 indicates no change; for increase in AUC24 on coadministration of gilteritinib with midazolam / increase in Cmax on coadministration of gilteritinib with midazolam: relative to midazolam alone.

For data set [2], the target named is T1, CYP3A4. The data set can be described thus: clinical. The settings on record: plasma, po, 2 mg.
For data set [3] the following is noted: human, in vivo; cited from earlier work.

The source of these data is PMC7550323 (Clinical Pharmacokinetics, 2020).

As a reminder, the AUC is the area under the concentration-time curve, a measure of exposure. The low end stands for less exposure, the high end for more exposure. One may read the Cmax as the highest concentration seen after dosing. Broadly, the half-life is the time in which the quantity being followed falls by half.

T1 sequence (P08684 whole entry): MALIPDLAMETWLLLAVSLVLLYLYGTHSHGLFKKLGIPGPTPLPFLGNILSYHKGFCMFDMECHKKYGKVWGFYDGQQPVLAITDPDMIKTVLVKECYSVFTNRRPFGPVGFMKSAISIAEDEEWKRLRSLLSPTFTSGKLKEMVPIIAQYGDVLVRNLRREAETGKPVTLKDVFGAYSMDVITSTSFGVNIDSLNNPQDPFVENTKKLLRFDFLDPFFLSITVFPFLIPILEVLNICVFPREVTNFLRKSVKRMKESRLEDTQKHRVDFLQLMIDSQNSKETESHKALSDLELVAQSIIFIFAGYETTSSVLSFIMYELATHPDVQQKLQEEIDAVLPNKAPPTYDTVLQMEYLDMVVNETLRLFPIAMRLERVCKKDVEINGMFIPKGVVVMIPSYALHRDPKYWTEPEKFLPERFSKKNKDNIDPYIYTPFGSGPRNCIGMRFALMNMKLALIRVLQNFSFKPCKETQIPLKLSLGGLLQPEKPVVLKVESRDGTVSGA

For `Cc1ncc2n1-c1ccc(Cl)cc1C(c1ccccc1F)=NC2` [midazolam, reference compound], the “AUC24, GLSM ratio (midazolam + gilteritinib/midazolam alone)” value in data set [1] (N = 8) came to 109.5%. Moreover, the “Cmax, GLSM ratio (midazolam + gilteritinib/midazolam alone)” value in data set [1] (N = 9) turned out to be 111.6%. In data set [1], the “increase in AUC24 on coadministration of gilteritinib with midazolam” value came out at 10% and the “increase in Cmax on coadministration of gilteritinib with midazolam” value was determined as 10%. In data set [2], this molecule gave an AUC of 54.3 ng·h/mL and a Cmax of 14.3 ng/mL.
As for `OCc1ncc2n1-c1ccc(Cl)cc1C(c1ccccc1F)=NC2` [1-hydroxymidazolam], in data set [1] (N = 8), the “AUC24, GLSM ratio (midazolam + gilteritinib/midazolam alone)” value worked out at 149.9%. Besides, the “Cmax, GLSM ratio (midazolam + gilteritinib/midazolam alone)” value in data set [1] (N = 9) worked out at 123.5%. Moreover, the “AUC24, MDZ + gilteritinib (GLSM)” value in data set [1] (midazolam 2 mg oral on Cycle 1 Day 15 with gilteritinib 300 mg QD, N = 8) amounted to 17.0 ng·h/mL. In addition, in data set [1] (midazolam 2 mg oral on Cycle 1 Day 15 with gilteritinib 300 mg QD, N = 9), the “Cmax, MDZ + gilteritinib (GLSM)” value came out at 4.3 ng/mL. In addition, in data set [1] (midazolam 2 mg oral on Day-1, N = 8), the “AUC24, MDZ alone (GLSM)” value stood at 11.3 ng·h/mL. In data set [1] (midazolam 2 mg oral on Day-1, N = 9), the “Cmax, MDZ alone (GLSM)” value came to 3.5 ng/mL. Moreover, in data set [1], the “increase in AUC24 on coadministration of gilteritinib with midazolam” value is reported as approximately 50% and the “increase in Cmax on coadministration of gilteritinib with midazolam” value was “approximately 23%”.
Turning to `CO[C@@H]1[C@H](N(C)C(=O)c2ccccc2)C[C@H]2O[C@]1(C)n1c3ccccc3c3c4c(c5c6ccccc6n2c5c31)C(=O)NC4` [midostaurin], in data set [3], the half-life is reported as 21 h, the “increase in exposure when coadministered with itraconazole” value is reported as 2.1 fold, the “increase in exposure when coadministered with ketoconazole” value is given as 10.4 fold and the “increase in exposure with a high-fat meal” value was 1.6 fold.
